Legend:
Assay type in all cases: in vivo
Triticum aestivum = experiment: Greenhouse post-emergence herbicidal effect against Triticum aestivum; settings: 216 h, 9 DAA, read-out: % Efficacy; for Emax at 5 g/ha: individual application 5 g of AS/ha; for Emax at 10 g/ha: individual application 10 g of AS/ha; for Emax at 20 g/ha: individual application 20 g of AS/ha
Experimental: (§1) Post-emergence action against weeds
(§2) Seeds or rhizome pieces of mono- and dicotyledonous harmful plants and of crop plants were placed in sandy loam in plastic pots having a diameter of 4 cm, covered with soil and cultivated in a greenhouse under good growth conditions.
(§3) Ten to twenty days after sowing, the test plants were treated at the one- to three-leaf stage. The herbicide/active compound combinations according to the invention (mixture applications) formulated as suspensions and, in parallel tests, the correspondingly formulated individual active compounds (individual applications) were then sprayed onto the green parts of the plants in various dosages at a water application rate of 300 I/ha (converted).
(§4) After the test plants had been kept in the greenhouse under optimum growth conditions for a certain period of time (DAA, days after application), the herbicidal activity was assessed visually by comparison of treated and untreated plants. The percentages mean: 0%=no herbicidal activity, 100%=the plants die off completely.
(§5) The percentages from the treatments with the herbicides alone (individual applications) and with the combinations according to the invention (mixture applications) were employed to calculate interactions using the method of Colby. When the observed efficacies of the mixture applications exceed the formal sum of the values of the tests with individual applications, they also exceed the expected value according to Colby, which is calculated using the formula below (cf. S. R. Colby; in Weeds 15 (1967) pp. 20 to 22):
(§6) Here: • A, B=activity of component A (triafamone) or B (indaziflam) in percent at a dosage of a and b, respectively, in g of AS/ha (gram of active substance per hectare). • exp. expected value in % at a dosage of a+b g of ai/ha. • b) Results
(§7) The abbreviations in the tables below have the following meanings: • DAA=days after application • g of AS/ha=grams of active substance per hectare • % efficacy=herbicidal effect in percent • meas.=measured values • exp.=expected values according to Colby (calculation: see above) • syn.%=difference (%) of measured value from expected value (%) (measured value minus expected value)/

Lolium rigidum = experiment: Greenhouse post-emergence herbicidal effect against Lolium rigidum; settings: 216 h, 9 DAA, read-out: % Efficacy; for Emax at 10 g/ha: individual application 10 g of AS/ha; for Emax at 20 g/ha: individual application 20 g of AS/ha
Experimental: as §1, §2, §3, §4, §5, §6, §7

Alopecurus myosuroides = experiment: Greenhouse post-emergence herbicidal effect against Alopecurus myosuroides; settings: 408 h, 17 DAA, read-out: % Efficacy; for Emax at 5 g/ha: individual application 5 g of AS/ha
Experimental: as §1, §2, §3, §4, §5, §6, §7

Viola tricolor = experiment: Greenhouse post-emergence herbicidal effect against Viola tricolor; settings: 408 h, 17 DAA, read-out: % Efficacy; for Emax at 5 g/ha: individual application 5 g of AS/ha
Experimental: as §1, §2, §3, §4, §5, §6, §7

Zea mays = experiment: Greenhouse post-emergence herbicidal effect against Zea mays; settings: 408 h, 17 DAA, read-out: % Efficacy; for Emax at 10 g/ha: individual application 10 g of AS/ha
Experimental: as §1, §2, §3, §4, §5, §6, §7

Avena fatua = experiment: Greenhouse post-emergence herbicidal effect against Avena fatua; settings: 408 h, 17 DAA, read-out: % Efficacy
Experimental: as §1, §2
(§8) Ten to twenty days after sowing, the test plants were treated at the one- to three-leaf stage. […]
(§9) After the test plants had been kept in the greenhouse under optimum growth conditions for a certain period of time (DAA, days after application), the herbicidal activity was assessed visually by comparison of treated and untreated plants. […]
as §5, with “22): […]” for “22):”

Hordeum murinum = experiment: Greenhouse post-emergence herbicidal effect against Hordeum murinum; settings: 408 h, 17 DAA, read-out: % Efficacy; for Emax at 20 g/ha: individual application 20 g of AS/ha
Experimental: as §1, §2, §3, §4, §5, §6, §7

Glycine max = experiment: Greenhouse post-emergence herbicidal effect against Glycine max; settings: 408 h, 17 DAA, read-out: % Efficacy; for Emax at 10 g/ha: individual application 10 g of AS/ha
Experimental: as §1, §2, §3, §4, §5, §6, §7

[1] = system: mono- and dicotyledonous harmful plants and crop plants; experiment: Greenhouse trials, discussion of the results over all test plants; settings: at the dosages tested, post-emergence
Experimental: as §1, §2, §8, §9
as §5, with “22): […]” for “22):”

[2] = individual application 10 g of AS/ha
[3] = individual application 20 g of AS/ha
[4] = individual application 5 g of AS/ha
[5] = individual application 2.5 g of AS/ha

Row | Compound | Emax at 5 g/ha (Triticum aestivum) [%] | Emax at 10 g/ha (Triticum aestivum) [%] | Emax at 20 g/ha (Triticum aestivum) [%] | Emax at 10 g/ha (Lolium rigidum) [%] | Emax at 20 g/ha (Lolium rigidum) [%] | Emax at 5 g/ha (Alopecurus myosuroides) [%] | Emax at 5 g/ha (Viola tricolor) [%] | Emax at 10 g/ha (Zea mays) [%] | Emax at 20 g/ha (Hordeum murinum) [%] | Emax at 10 g/ha (Glycine max) [%] | other results
1 | Cc1ccc2c(c1)[C@H](Nc1nc(N)nc(C(C)F)n1)[C@@H](C)C2 (stereo partly drawn) [indaziflam] | 23 | 23 | 48 | 63 | 70 | 15 | 80 | 0 | 40 | 73 | Emax at 40 g/ha (Triticum aestivum; individual application 40 g of AS/ha): 63%; Emax at 10 g/ha (Alopecurus myosuroides; [2]): 60%; Emax at 20 g/ha (Alopecurus myosuroides; [3]): 75%; Emax at 20 g/ha (Zea mays; [3]): 25%; Emax at 5 g/ha (Avena fatua; [4]): 10%; Emax at 5 g/ha (Glycine max; [4]): 50%
2 | COc1nc(OC)nc(C(=O)c2cccc(F)c2N(C)S(=O)(=O)C(F)F)n1 [triafamone] | 0 | 0 | 13 | 0 | 18 | 50 | 0 | 0 | 0 | 0 | Emax at 2.5 g/ha (Triticum aestivum; [5]): 0%; Emax at 2.5 g/ha (Lolium rigidum; [5]): 0%; Emax at 5 g/ha (Lolium rigidum; [4]): 0%; Emax at 2.5 g/ha (Alopecurus myosuroides; [5]): 25%; Emax at 2.5 g/ha (Viola tricolor; [5]): 0%; Emax at 10 g/ha (Viola tricolor; [2]): 0%; Emax at 2.5 g/ha (Zea mays; [5]): 0%; Emax at 5 g/ha (Zea mays; [4]): 0%; Emax at 10 g/ha (Avena fatua; [2]): 0%; Emax at 2.5 g/ha (Hordeum murinum; [5]): 0%; Emax at 5 g/ha (Hordeum murinum; [4]): 0%; Emax at 2.5 g/ha (Glycine max; [5]): 0%; herbicidal efficacy as individual herbicide [1]: frequently ineffective

— US20190387739A1, “HERBICIDAL COMBINATION CONTAINING TRIAFAMONE AND INDAZIFLAM” (Bayer CropScience Aktiengesellschaft, priority 2016, published 2019)
